Measured values: ChEMBL document CHEMBL6114995, “Discovery of novel imidazo[1,2-b]pyridazine derivatives as potent covalent inhibitors of CDK12/13” (Eur J Med Chem, 2025)
Calls of active or inactive are those of the source. No cut-off for these calls is given here.

Columns and labels:
[1] = test system: MDA-MB-468; experiment: cells; details: Homo sapiens, MDA-MB-468, 96 h
Description: Antiproliferative activity against human MDA-MB-468 cells assessed as inhibition of cell growth incubated for 96 hrs cellcounting-lite analysis

[2] = test system: MDA-MB-231; experiment: cells; details: Homo sapiens, MDA-MB-231, 96 h
Description: Antiproliferative activity against human MDA-MB-231 cells assessed as inhibition of cell growth incubated for 96 hrs cellcounting-lite analysis

[3] = biological target: T1, Cyclin-dependent kinase 12 (Homo sapiens, UniProt Q9NYV4); experiment: Irreversible inhibition of CDK12 in human MDA-MB-231 cells at 10 uM pretreated with compound for 4 hrs followed by compound washout measured after 6 hrs; assay type: cell-based
Target sequence in this assay (Q9NYV4 whole entry, looked up): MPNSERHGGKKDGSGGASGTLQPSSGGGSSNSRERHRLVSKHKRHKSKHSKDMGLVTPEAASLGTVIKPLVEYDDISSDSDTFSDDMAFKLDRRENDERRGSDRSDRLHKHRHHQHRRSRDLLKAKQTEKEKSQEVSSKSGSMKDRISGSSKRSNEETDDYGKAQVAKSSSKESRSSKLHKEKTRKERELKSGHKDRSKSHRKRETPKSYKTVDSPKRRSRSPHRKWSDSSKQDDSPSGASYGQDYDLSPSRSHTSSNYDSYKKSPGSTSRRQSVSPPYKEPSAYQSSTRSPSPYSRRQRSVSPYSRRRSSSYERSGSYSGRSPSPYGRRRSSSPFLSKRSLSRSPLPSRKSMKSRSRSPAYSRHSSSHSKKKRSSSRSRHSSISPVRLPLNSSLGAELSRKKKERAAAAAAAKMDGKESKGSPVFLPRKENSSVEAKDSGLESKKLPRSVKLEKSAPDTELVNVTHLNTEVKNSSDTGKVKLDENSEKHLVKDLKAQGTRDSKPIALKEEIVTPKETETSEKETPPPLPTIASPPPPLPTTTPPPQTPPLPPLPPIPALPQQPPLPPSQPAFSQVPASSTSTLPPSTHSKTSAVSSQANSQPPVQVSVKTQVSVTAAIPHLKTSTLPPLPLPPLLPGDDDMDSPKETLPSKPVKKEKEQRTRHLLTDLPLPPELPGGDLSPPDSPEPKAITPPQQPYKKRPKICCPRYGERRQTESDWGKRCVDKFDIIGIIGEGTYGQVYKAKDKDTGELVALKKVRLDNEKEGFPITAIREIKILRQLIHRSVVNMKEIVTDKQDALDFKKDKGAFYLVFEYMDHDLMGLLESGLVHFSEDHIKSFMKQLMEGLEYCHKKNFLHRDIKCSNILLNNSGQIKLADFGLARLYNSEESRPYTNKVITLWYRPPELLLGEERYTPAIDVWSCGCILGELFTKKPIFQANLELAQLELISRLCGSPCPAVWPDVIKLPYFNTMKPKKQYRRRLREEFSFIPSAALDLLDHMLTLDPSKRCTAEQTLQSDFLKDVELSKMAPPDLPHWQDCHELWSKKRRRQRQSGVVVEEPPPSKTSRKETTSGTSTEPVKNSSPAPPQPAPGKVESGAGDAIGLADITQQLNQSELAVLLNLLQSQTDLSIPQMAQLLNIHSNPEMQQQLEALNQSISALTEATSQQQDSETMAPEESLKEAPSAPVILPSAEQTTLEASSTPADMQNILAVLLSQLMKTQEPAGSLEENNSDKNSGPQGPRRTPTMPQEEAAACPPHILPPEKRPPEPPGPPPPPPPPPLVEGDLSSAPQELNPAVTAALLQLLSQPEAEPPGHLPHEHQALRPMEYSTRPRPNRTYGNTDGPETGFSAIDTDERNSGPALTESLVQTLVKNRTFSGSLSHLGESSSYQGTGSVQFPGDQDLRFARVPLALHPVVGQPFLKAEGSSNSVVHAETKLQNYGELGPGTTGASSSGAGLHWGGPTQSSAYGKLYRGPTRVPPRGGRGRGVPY

[4] = biological target: T1, Cyclin-dependent kinase 12; experiment: Inhibition of CDK12 in human MDA-MB-231 cells assessed as reduction in RNA Pol II CTD level at Ser2 residue at 10 uM incubated for 4 hrs by Western blot analysis; assay type: cell-based
Target sequence in this assay (Q9NYV4 whole entry, looked up): as above

[5] = biological target: T1, Cyclin-dependent kinase 12; details: dose 20.0 nM
Target sequence in this assay (Q9NYV4 whole entry, looked up): as above
Description: Inhibition of CDK12 (unknown origin) at 20 nM relative to control

[6] = biological target: T1, Cyclin-dependent kinase 12; details: dose 2000.0 nM
Target sequence in this assay (Q9NYV4 whole entry, looked up): as above
Description: Inhibition of CDK12 (unknown origin) at 2000 nM relative to control

[7] = biological target: T1, Cyclin-dependent kinase 12; experiment: Inhibition of CDK12 (unknown origin) using GSRTPMY-NH2 as substrate in presence of ATP by ADP-glo assay
Target sequence in this assay (Q9NYV4 whole entry): as the sequence (Q9NYV4 whole entry, looked up) above

[8] = biological target: T1, Cyclin-dependent kinase 12; details: dose 200.0 nM
Target sequence in this assay (Q9NYV4 whole entry, looked up): as above
Description: Inhibition of CDK12 (unknown origin) at 200 nM relative to control

[9] = test system: MDA-MB-231; experiment: Effect on RAD51 mRNA level in human MDA-MB-231 cells at 50 nM incubated for 6 hrs by qRT-PCR analysis; assay type: functional, cell-based
[10] = biological target: T1, Cyclin-dependent kinase 12; experiment: Inhibition of CDK12 in human MDA-MB-231 cells pretreated with compound for 4 hrs followed by compound washout measured after 3 days; assay type: cell-based
Target sequence in this assay (Q9NYV4 whole entry): as the sequence (Q9NYV4 whole entry, looked up) above

[11] = biological target: T1, Cyclin-dependent kinase 12; experiment: Inhibition of full length FLAG-tagged CDK12 (unknown origin) at Cys1039 residue expressed in HEK293T cells at 50 uM incubated for 2 hrs by mass spectrometry analysis; assay type: cell-based
Target sequence in this assay (Q9NYV4 whole entry, looked up): as above

[12] = biological target: Cyclin-dependent kinase 13 (Homo sapiens, UniProt Q14004); experiment: Inhibition of CDK13 (unknown origin) using GSRTPMY-NH2 as substrate in presence of ATP by ADP-glo assay
Sequence of Cyclin-dependent kinase 13 (Q14004 whole entry): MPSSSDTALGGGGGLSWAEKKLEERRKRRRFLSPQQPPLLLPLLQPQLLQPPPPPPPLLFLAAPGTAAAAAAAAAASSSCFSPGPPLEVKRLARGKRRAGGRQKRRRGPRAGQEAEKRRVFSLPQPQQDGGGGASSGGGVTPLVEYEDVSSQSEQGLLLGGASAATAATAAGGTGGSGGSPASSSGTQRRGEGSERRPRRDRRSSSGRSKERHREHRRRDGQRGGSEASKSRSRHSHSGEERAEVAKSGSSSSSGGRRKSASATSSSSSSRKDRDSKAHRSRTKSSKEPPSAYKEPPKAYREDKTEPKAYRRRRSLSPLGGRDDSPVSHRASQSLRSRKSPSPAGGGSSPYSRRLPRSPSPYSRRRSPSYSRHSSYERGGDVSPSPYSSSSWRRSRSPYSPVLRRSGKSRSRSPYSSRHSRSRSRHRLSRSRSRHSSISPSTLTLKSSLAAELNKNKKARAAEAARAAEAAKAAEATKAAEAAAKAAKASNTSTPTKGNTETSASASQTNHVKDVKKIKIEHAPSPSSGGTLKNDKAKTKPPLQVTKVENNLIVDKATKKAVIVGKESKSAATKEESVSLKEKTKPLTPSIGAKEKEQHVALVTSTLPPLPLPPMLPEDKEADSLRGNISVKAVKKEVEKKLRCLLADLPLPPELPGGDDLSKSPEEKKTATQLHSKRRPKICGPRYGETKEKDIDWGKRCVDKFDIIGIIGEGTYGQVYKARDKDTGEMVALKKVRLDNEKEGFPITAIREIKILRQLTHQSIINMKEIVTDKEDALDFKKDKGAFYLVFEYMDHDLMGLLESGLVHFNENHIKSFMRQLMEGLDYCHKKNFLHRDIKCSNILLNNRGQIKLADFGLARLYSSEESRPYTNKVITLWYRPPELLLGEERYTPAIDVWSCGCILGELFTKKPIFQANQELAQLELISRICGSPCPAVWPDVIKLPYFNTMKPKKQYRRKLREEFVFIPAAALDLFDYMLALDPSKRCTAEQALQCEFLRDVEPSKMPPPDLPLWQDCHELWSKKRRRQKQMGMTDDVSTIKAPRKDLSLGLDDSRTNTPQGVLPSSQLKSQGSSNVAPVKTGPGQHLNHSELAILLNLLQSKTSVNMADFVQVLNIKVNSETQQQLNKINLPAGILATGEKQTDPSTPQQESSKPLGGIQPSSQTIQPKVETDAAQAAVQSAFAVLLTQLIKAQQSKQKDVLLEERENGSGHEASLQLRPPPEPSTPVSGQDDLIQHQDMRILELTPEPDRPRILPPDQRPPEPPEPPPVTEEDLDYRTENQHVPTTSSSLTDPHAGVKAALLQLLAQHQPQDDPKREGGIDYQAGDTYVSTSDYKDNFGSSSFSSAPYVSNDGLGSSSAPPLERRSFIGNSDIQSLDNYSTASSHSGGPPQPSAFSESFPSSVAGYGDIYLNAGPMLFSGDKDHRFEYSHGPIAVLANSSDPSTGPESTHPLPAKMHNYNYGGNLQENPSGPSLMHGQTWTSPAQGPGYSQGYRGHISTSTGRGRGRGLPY

[13] = biological target: T1, Cyclin-dependent kinase 12; experiment: Inhibition of CDK12 in human MDA-MB-231 cells at 100 nM measured upto 6 hrs by Western blot analysis; assay type: cell-based
[14] = test system: MDA-MB-231; experiment: Effect on alpha-tubulin level in human MDA-MB-231 cells at 50 nM incubated for 24 hrs by Western blot analysis; assay type: functional, cell-based
[15] = biological target: T1, Cyclin-dependent kinase 12; experiment: Inhibition of CDK12 in human MDA-MB-231 cells incubated for 10 hrs; assay type: cell-based
Target sequence in this assay (Q9NYV4 whole entry): as the sequence (Q9NYV4 whole entry, looked up) above

[16] = test system: MDA-MB-231; experiment: Effect on SMARCC1 mRNA level in human MDA-MB-231 cells at 50 nM incubated for 6 hrs by qRT-PCR analysis; assay type: functional, cell-based
[17] = test system: MDA-MB-231; experiment: Effect on cleaved PARP level in human MDA-MB-231 cells at 50 nM incubated for 24 hrs by Western blot analysis; assay type: functional, cell-based
[18] = biological target: T1, Cyclin-dependent kinase 12; experiment: Irreversible inhibition of CDK12 in human MDA-MB-231 cells at 100 nM pretreated with compound for 4 hrs followed by compound washout measured after 6 hrs; assay type: cell-based
[19] = test system: MDA-MB-231; experiment: Effect on BRCA1 mRNA level in human MDA-MB-231 cells at 50 nM incubated for 6 hrs by qRT-PCR analysis; assay type: functional, cell-based
[20] = test system: MDA-MB-231; experiment: Effect on RAD51 level in human MDA-MB-231 cells at 50 nM incubated for 24 hrs by Western blot analysis; assay type: functional, cell-based
[21] = biological target: T1, Cyclin-dependent kinase 12; experiment: Inhibition of CDK12 in human MDA-MB-231 cells incubated for 4 hrs by immunoblotting analysis; assay type: cell-based
[22] = test system: MDA-MB-231; experiment: Effect on ATM level in human MDA-MB-231 cells at 50 nM incubated for 24 hrs by Western blot analysis; assay type: functional, cell-based
[23] = test system: MDA-MB-231; experiment: Effect on ATM mRNA level in human MDA-MB-231 cells at 50 nM incubated for 6 hrs by qRT-PCR analysis; assay type: functional, cell-based
[24] = biological target: T1, Cyclin-dependent kinase 12; experiment: Binding affinity to CDK12 (714 to 1069 residues) in HEK293T cells assessed as increase in thermal stability at 5 uM measured for 6 hrs by cellular thermal shift assay; assay type: cell-based
[25] = biological target: T1, Cyclin-dependent kinase 12; experiment: Inhibition of CDK12 in human MDA-MB-231 cells assessed as reduction in RNA Pol II CTD level at Ser2 residue at 2000 nM incubated for 4 hrs by Western blot analysis; assay type: cell-based
[26] = biological target: T1, Cyclin-dependent kinase 12; experiment: Inhibition of CDK12 in human MDA-MB-231 cells incubated for 4 hrs; assay type: cell-based
[27] = test system: MDA-MB-231; experiment: Effect on FANCI mRNA level in human MDA-MB-231 cells at 50 nM incubated for 6 hrs by qRT-PCR analysis; assay type: functional, cell-based
[28] = test system: MDA-MB-231; experiment: Effect on FANCD2 mRNA level in human MDA-MB-231 cells at 50 nM incubated for 6 hrs by qRT-PCR analysis; assay type: functional, cell-based
[29] = test system: MDA-MB-231; experiment: Effect on ATR mRNA level in human MDA-MB-231 cells at 50 nM incubated for 6 hrs by qRT-PCR analysis; assay type: functional, cell-based
[30] = biological target: T1, Cyclin-dependent kinase 12; details: MDA-MB-231, dose 200.0 nM, time 4.0 hrs
[31] = biological target: Protein cereblon/Cyclin-K (Homo sapiens, UniProt O75909+Q96SW2); experiment: PROTAC activity at CRBN/Cyclin K in human MDA-MB-231 cells assessed as reduction in cyclin K level incubated for 4 hrs by Western blot analysis; assay type: cell-based
Sequence of Protein cereblon/Cyclin-K (O75909 whole entry): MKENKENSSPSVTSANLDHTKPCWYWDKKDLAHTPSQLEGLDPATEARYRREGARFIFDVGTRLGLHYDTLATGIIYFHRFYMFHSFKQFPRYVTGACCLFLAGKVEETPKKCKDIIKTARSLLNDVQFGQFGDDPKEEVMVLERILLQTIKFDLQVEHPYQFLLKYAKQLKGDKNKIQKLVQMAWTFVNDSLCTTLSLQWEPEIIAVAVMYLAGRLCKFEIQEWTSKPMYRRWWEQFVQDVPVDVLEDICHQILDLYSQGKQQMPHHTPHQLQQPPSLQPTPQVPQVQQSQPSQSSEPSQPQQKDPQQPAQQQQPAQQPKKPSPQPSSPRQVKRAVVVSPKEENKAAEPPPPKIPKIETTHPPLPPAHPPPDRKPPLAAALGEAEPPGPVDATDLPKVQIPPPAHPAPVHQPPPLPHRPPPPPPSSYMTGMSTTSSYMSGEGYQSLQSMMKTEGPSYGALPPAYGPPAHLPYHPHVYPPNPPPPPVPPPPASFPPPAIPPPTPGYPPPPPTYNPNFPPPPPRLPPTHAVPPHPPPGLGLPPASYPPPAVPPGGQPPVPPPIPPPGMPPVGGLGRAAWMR
Sequence of Protein cereblon/Cyclin-K (Q96SW2 whole entry): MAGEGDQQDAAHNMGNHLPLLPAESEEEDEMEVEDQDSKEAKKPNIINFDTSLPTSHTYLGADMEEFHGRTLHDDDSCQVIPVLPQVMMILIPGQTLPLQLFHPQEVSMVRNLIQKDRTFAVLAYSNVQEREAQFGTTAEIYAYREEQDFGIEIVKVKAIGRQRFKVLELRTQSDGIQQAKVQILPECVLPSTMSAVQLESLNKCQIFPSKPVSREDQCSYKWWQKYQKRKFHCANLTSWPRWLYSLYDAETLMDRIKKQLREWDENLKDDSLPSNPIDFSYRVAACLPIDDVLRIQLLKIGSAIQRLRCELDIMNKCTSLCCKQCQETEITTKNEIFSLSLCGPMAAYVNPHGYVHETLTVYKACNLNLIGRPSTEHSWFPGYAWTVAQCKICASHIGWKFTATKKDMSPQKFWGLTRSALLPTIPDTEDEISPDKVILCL

## C=CC(=O)Nc1ccc(-c2ccc3nc(CC(=O)Nc4nc(C)c(C)s4)cn3n2)cc1F
[1]
  EC50: 1160 nM
[2]
  EC50: 3140 nM

## C=CC(=O)Nc1c(F)cc(-c2ccc3nc(CC(=O)Nc4cc(C5CC5)[nH]n4)cn3n2)cc1F
[1]
  EC50: 196 nM
[2]
  EC50: 131 nM

## C=CC(=O)Nc1ccc(-c2ccc3nc(CC(=O)Nc4cc(C5CC5)[nH]n4)cn3n2)cc1
[1]
  EC50: 36.4 nM
[2]
  EC50: 67.3 nM

## C=CC(=O)Nc1ccc(-c2ccc3nc(CC(=O)Nc4cc(C5CC5)[nH]n4)cn3n2)cc1Cl
[1]
  EC50: 47.9 nM
[2]
  EC50: 84.9 nM

## C=CC(=O)Nc1ccccc1-c1ccc2nc(CC(=O)Nc3cc(C4CC4)[nH]n3)cn2n1
[1]
  EC50: 504 nM
[2]
  EC50: 352 nM

## CCC(=O)Nc1ccc(-c2ccc3nc(CC(=O)Nc4cc(C5CCC5)[nH]n4)cn3n2)cc1F
[3]
  inhibition: Active
[4]
  inhibition: Active

## C=CC(=O)Nc1ccc(-c2ccc3nc(CC(=O)Nc4ncc(C(C)(C)C)s4)cn3n2)cc1F
[1]
  EC50: 354 nM
[2]
  EC50: 219 nM

## C=CC(=O)Nc1ccc(-c2ccc3nc(CC(=O)Nc4cc(C)ns4)cn3n2)cc1F
[1]
  EC50: 4520 nM

## C=CC(=O)Nc1c(C)cc(-c2ccc3nc(CC(=O)Nc4cc(C5CC5)[nH]n4)cn3n2)cc1C
[1]
  EC50: 36.2 nM
[2]
  EC50: 75.9 nM

## C=CC(=O)Nc1ccc(-c2ccc3nc(CC(=O)Nc4ncc(C(C)C)s4)cn3n2)cc1F
[1]
  EC50: 608 nM
[2]
  EC50: 424 nM

## Cn1cc(-n2cnc3c(NCc4nc5cc(Cl)c(Cl)cc5[nH]4)nc(N4CCOCC4)nc32)cn1
[1]
  EC50: 20.3 nM
[2]
  EC50: 20.7 nM

## C=CC(=O)Nc1ccc(-c2ccc3nc(CC(=O)Nc4cc(C)no4)cn3n2)cc1F
[2]
  EC50: 2920 nM

## C=CC(=O)Nc1ccc(-c2ccc3nc(CC(=O)Nc4ncc(CC)s4)cn3n2)cc1F
[5]
  inhibition: 29.9%
[1]
  EC50: 108 nM
[6]
  inhibition: 92.1%
[2]
  EC50: 120 nM
[7]
  IC50: 34.2 nM
[8]
  inhibition: 80.7%

## CN(C)C/C=C/C(=O)Nc1ccc(C(=O)N2CCC[C@@H](Nc3ncc(Cl)c(-c4c[nH]c5ccccc45)n3)C2)cc1
[5]
  inhibition: 59.7%
[1]
  EC50: 6.9 nM
[6]
  inhibition: 93.1%
[2]
  EC50: 26.3 nM
[7]
  IC50: 14.1 nM
[8]
  inhibition: 92.7%

## C=CC(=O)Nc1ccc(-c2ccc3nc(CC(=O)Nc4cc(C5CC5)[nH]n4)cn3n2)cc1OC
[1]
  EC50: 40.9 nM
[2]
  EC50: 46.4 nM

## C=CC(=O)Nc1cccc(-c2ccc3nc(CC(=O)Nc4cc(C5CC5)[nH]n4)cn3n2)c1
[1]
  EC50: 28.3 nM
[2]
  EC50: 126 nM

## C=CC(=O)Nc1ccc(-c2ccc3nc(CC(=O)Nc4cc(C5CCC5)[nH]n4)cn3n2)cc1F
[9]
  Activity: Active
[5]
  inhibition: 73.8%
[10]
  EC50: 40 nM
[11]
  inhibition: Active
[1]
  EC50: 6 nM
[12]
  IC50: 12.2 nM
[13]
  inhibition: Active
[14]
  Activity: Active
[15]
  EC50: 5.38 nM
[16]
  Activity: Active
[17]
  Activity: Active
[18]
  inhibition: Active
[19]
  Activity: Active
[20]
  Activity: Active
[21]
  inhibition: Active
[6]
  inhibition: 92.5%
[22]
  Activity: Active
[2]
  EC50: 5 nM
[23]
  Activity: Active
[7]
  IC50: 15.5 nM
[24]
  Activity: Active
[25]
  inhibition: Active
[26]
  inhibition: Active
[27]
  Activity: Active
[28]
  Activity: Active
[29]
  Activity: Active
[8]
  inhibition: 93%
[30]
  inhibition: 100%

## C=CC(=O)Nc1ccc(-c2ccc3nc(CC(=O)Nc4cc(C(C)(C)C)on4)cn3n2)cc1F
[2]
  EC50: 2860 nM

## C=CC(=O)Nc1ccc(-c2ccc3nc(CC(=O)Nc4cc(C5CC5)[nH]n4)cn3n2)cc1C
[1]
  EC50: 13.5 nM
[2]
  EC50: 30.3 nM

## C=CC(=O)Nc1ccc(-c2ccc3nc(CC(=O)Nc4nc(C5CC5)cs4)cn3n2)cc1F
[1]
  EC50: 7260 nM

## C=CC(=O)Nc1ccc(-c2ccc3nc(CC(=O)Nc4cc(C5CC5)[nH]n4)cn3n2)cc1F
[9]
  Activity: Active
[1]
  EC50: 10.1 nM
[14]
  Activity: Active
[16]
  Activity: Active
[17]
  Activity: Active
[19]
  Activity: Active
[20]
  Activity: Active
[22]
  Activity: Active
[2]
  EC50: 14.3 nM
[23]
  Activity: Active
[27]
  Activity: Active
[28]
  Activity: Active
[29]
  Activity: Active

## CCN(CC)CC(=O)N1CCN(c2nc(NCc3nc4cc(Cl)c(Cl)cc4[nH]3)c3ncn(CC)c3n2)CC1
[31]
  DC50: 0.38 nM

## C=CC(=O)Nc1ccc(-c2ccc3nc(CC(=O)Nc4nc(C)cs4)cn3n2)cc1F
[1]
  EC50: 1300 nM
[2]
  EC50: 3040 nM
